Measured values taken from patent US6124280A, “Substituted phenols as novel calcium channel blockers” (Warner-Lambert Company, priority 1998, dated 2000).
Counter-ions that a name gives are not always drawn. Positions of bridges follow the written chain, without caps; N, C: chain ends. No end group written: not given here.

How the values were obtained:
[1] = biological target: T1, N-type voltage gated calcium channels (chicken brain synaptosomes) (Gallus gallus, UniProt A0A8V1AJW5); assay: Chick Whole Brain Synaptosomal ^45 Calcium Flux Assay (inhibition of potassium stimulated calcium influx); assay type: biochemical; settings: 20 mM KCl stimulated minus 3 mM KCl basal; 5 min drug pre-incubation, room temperature; 30-second incubation; read-out: Inhibition of ^45 Ca^+2 Influx in Chick Synaptosomes IC50
T1 construct: K+-stimulated 45Ca influx; auxiliary alpha2delta and beta subunits present but not identified
Experimental: (§1) To measure interaction at the N-type calcium channel and calcium flux inhibition, the effects of the calcium channel blockers were measured in the assays described below.
A compound is assessed at various concentrations for its ability to inhibit this potassium stimulated calcium influx.
One- to five-week old chicks were killed by decapitation and whole brain was removed. The brainstem was discarded, and the remaining brain tissue was placed in ice-cold sucrose buffer (composition: 320 mM sucrose, 5.0 mM TRIS base, 0.1 mM EDTA, pH adjusted to 7.3 with HCl). The total wet weight of pooled brain tissue was determined, and the tissue was homogenized in 10 mL sucrose buffer per gram wet weight. A Potter S-type homogenizer (B. Braun Co.) with a glass tube and teflon pestle was used. Five strokes at 400 rpm were followed by four strokes at 800 rpm. The homogenate was poured into cold centrifuge tubes and centrifuged for 10 minutes at 3000 rpm (1,075 g) in a refrigerated 4° C. RC-5 centrifuge (Sorvall) using an SS-34 rotor. The supernatant was collected and centrifuged at 11,500 rpm (15,800 g) for 10 minutes. The supernatant was discarded, and the pellet was resuspended in 1 mL sucrose buffer. Cold incubation buffer (composition: 1.2 mM MgCl2, 22 mM HEPES, 11 mM glucose, 3 mM KCl, 136 mM choline chloride, pH adjusted to 7.3 with TRIS base) was added slowly to the suspension for a total volume of 30 to 40 mL. This mixture was centrifuged at 7,000 rpm (5,856 g) for 5 minutes. The supernatant was discarded, and the pellet was resuspended in 5 mL of incubation buffer per gram of original wet weight of brain. This synaptosomal suspension was kept on ice until the start of the assay, at which time 35 μL of synaptosome suspension were added to each well of a 96-well filter plate (Millipore) which contained 75 μL incubation buffer with or without drug. Drugs were dissolved in DMSO or H2 O, and the concentration of DMSO was less than or equal to 1%.
Synaptosomes were pre-incubated in the presence or absence of drug for 5 minutes at room temperature before the addition of radioactive calcium. Drugs were present throughout the assay. Two μCi/mL stocks of ^45 CaCl2 were prepared in basal buffer (composition: incubation buffer plus 1 mM CaCl2) and in stimulation buffer (composition: 1.2 mM MgCl2, 22 mM HEPES, 11 mM glucose, 37 mM KCl, 102 mM choline chloride, 1 mM CaCl2, pH adjusted to 7.3 with TRIS base). One hundred microliter of radioactive basal or stimulation buffer were pipetted into a pre-incubated plate of synaptosomes using a Quadra 96 pipetter (Tomtec). The final KCl concentration was 3 mM for the basal condition and 20 mM for the stimulated condition; the final CaCl2 concentration was 0.5 mM with 1 μCi/mL of ^45 CaCl2. The plate was filtered under vacuum after a 30-second incubation with radioactivity. The filters were washed twice with 200 μL of wash buffer (composition: 140 mM choline chloride, 3 mM EGTA, 22 mM HEPES, pH adjusted to 7.3 with TRIS base). Plates were allowed to dry completely. Scintillation fluid was added (20 μL/well), and the plates were counted in a Wallace Microbeta plate counter. Basal ^45 CaCl2 flux (3 mM KCl) was subtracted from stimulated ^45 CaCl2 flux (20 mM KCl) in both control and drug-treated conditions, and data were expressed as percent inhibition of the adjusted control response. Values obtained in this way were plotted as a function of drug concentration and IC50 values were calculated.

[2] = biological target: T2, N-type calcium channels (IMR-32 cells) (Homo sapiens, UniProt Q00975); assay: N-type Ca2+ channel blocking potency in IMR-32 cells using fluorescent Ca2+ indicator Indo-1; assay type: cell-based; settings: K+ depolarization, 5 μM nitrendipine present to block L-type channels, 10 min at 30° C., read-out: Inhibition of ^45 Ca^+2 Influx in IMR-32 Cells IC50
T2 construct: host or cells: IMR-32, differentiated with dibutyryl cAMP and bromodeoxyuridine
Experimental: as §1
IMR-2 cells are a human tumoral cell line of neural origin. […] Calcium flux into these cells may be induced by stimulation with elevated potassium concentrations. The L-channel component of calcium flux may be blocked by adding 5 μM nitrendipine. The remaining component of calcium entry into the IMR-32 cells is due to calcium flux through N-type calcium channels. Intracellular calcium concentrations are measured using the fluorescent calcium indicator Indo-1. The effect of drug concentration on calcium uptake is studied.
The IMR-32 cell line was obtained from the American Type Culture Collection (Rockville, Md.). Cells were grown in Eagle's Minimum Essential Medium with Earle's salts supplemented with 10% fetal bovine serum, 2 mM L-Gln and antibiotic/antimicotic mixture (Gibco). At approximately 80% confluency, differentiation was induced by the addition of 1 mM dibutyryl cAMP and 2.5 μM bromodeoxyuridine to the medium. After 7 to 13 days of differentiation, cells were detached using 0.5 mM EDTA and loaded with 5 μM Indo-1 acetoxymethyl ester (Molecular Probes, Eugene, Or.) at 30° C. for 45 minutes. Loaded cells were washed twice, resuspended (~10^7 cells/mL) in assay buffer (10 mM HEPES/Tris pH 7.4 in Hank's Balanced Salt Solution without bicarbonate or phenol red containing 0.5% bovine serum albumin) and kept on ice until use. Fluorescence measurements were carried out in a Photon Technology International (PTI, South Brunswick, N.J.) Model RF-F3004 spectrofluorometer with dual emission monochromators using excitation at 350 nm and emission at 400 and 490 nm. The instrument was equipped with a thermostatted cuvette holder with stirring capabilities as well as with a computer-controlled pump which allowed for reagent addition during measurement. Instrument control and data collection was done by PTI's OSCAR software running on an IBM compatible computer. Different concentrations of the test compounds (60 μL in dimethyl sulfoxide) were added to 5.94 mL of assay buffer containing approximately 3×10^6 loaded cells, and 5 μM Nitrendipine (in 30 μL EtOH) to block L-type Ca^2+ channels. Samples were incubated for 10 minutes at 30° C. and then aliquoted into three 10×10 mm disposable acrylic cuvettes. Emission signals at 400 and 490 nm were acquired from each cuvette at 30° C. for 50 seconds. At 20 seconds after the start of reading, cells were depolarized by the addition of 160 μL of stimulation solution (1M KCl, 68 mM CaCl2) to the cuvette via the computer-controlled pump. Ratio of dual emission signals (400 nm/490 nm), which is proportional to intracellular Ca^2+ concentration, was plotted against time, and the difference between maximal response after stimulation and basal value (before stimulation) was determined. Values obtained in this way were plotted as a function of drug concentration. IC50 values of test compounds were calculated by fitting a 4-parameter logistic function to the data using the least squares method.

N-type calcium channel = settings: cited: Bowersox et al. 1994; cited from earlier work

T1 sequence (A0A8V1AJW5 1-2349): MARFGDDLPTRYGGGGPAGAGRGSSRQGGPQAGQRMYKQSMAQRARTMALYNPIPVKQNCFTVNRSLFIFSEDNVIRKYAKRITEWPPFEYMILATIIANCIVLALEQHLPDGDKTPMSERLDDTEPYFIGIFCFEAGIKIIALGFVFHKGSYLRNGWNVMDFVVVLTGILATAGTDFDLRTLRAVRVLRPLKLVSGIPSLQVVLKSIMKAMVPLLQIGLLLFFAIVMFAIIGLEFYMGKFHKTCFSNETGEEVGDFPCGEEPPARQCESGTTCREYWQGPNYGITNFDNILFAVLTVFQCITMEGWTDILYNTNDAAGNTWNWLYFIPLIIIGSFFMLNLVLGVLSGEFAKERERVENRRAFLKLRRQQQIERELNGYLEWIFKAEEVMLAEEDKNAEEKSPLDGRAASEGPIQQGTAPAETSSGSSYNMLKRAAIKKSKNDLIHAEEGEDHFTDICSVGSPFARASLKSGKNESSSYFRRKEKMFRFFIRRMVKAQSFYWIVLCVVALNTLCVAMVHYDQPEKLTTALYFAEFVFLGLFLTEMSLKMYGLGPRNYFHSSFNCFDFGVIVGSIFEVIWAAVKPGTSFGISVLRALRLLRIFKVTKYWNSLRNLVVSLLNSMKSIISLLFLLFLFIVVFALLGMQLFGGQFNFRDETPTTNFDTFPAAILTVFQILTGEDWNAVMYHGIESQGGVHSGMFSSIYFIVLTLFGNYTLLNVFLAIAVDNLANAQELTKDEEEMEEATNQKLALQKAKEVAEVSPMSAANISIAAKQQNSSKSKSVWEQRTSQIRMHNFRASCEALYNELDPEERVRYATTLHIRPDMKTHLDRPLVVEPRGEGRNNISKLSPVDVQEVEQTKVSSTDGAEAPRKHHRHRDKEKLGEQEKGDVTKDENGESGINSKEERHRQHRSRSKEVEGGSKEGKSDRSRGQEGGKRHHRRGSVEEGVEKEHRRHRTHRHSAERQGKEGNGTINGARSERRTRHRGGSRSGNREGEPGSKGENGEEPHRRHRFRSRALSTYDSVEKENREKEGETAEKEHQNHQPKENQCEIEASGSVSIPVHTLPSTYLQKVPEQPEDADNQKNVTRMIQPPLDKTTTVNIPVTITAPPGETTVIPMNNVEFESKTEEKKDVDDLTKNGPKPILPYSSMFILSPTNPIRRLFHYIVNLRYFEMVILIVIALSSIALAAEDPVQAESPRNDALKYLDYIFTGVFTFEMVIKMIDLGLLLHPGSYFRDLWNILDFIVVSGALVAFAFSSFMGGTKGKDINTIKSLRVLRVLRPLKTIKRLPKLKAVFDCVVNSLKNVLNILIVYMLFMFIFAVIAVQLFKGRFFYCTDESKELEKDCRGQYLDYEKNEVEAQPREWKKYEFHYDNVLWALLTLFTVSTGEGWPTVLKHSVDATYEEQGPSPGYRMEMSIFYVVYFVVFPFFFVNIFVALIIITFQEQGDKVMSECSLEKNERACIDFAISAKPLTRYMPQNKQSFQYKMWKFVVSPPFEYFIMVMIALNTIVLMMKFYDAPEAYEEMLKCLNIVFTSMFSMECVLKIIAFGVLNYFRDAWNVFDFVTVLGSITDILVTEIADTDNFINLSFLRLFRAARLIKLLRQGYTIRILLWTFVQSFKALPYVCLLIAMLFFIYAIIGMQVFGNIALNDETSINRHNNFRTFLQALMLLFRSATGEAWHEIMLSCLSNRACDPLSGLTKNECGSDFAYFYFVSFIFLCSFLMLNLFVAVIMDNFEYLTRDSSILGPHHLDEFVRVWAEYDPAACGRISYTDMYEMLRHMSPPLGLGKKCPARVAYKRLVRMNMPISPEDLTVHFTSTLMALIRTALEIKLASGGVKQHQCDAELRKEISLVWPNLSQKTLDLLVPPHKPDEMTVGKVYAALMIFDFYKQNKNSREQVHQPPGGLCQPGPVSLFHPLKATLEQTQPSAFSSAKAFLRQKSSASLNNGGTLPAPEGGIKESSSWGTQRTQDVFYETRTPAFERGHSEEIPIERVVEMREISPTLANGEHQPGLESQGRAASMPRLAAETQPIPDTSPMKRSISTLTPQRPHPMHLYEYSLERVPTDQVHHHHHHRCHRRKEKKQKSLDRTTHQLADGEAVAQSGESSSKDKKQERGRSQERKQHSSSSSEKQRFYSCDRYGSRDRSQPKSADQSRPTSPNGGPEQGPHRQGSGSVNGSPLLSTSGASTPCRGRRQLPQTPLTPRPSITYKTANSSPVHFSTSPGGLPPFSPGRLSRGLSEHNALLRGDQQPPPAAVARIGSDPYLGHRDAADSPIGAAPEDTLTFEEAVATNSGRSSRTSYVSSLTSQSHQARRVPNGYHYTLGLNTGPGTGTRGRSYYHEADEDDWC

In the case of CC(CCC(O)(c1ccccc1)c1ccccc1)(c1ccc(O)c(CN2CCCCCC2)c1)c1ccc(O)c(CN2CCCCCC2)c1 [Example 3, 4,4'-(4-Hydroxy-1-methyl-4,4-diphenylbutylidene)bis[2-[(hexahydro-1H-azepin-1-yl)methyl]phenol] oxalic acid salt], the IC50 [1] is reported as 1400 nM and the IC50 [2] is reported as 490 nM.
CC(CCC(c1ccccc1)c1ccccc1)(c1ccc(O)c(CN2CCCCCC2)c1)c1ccc(O)c(CN2CCCCCC2)c1 [Example 6, 4,4'-(1-Methyl-4,4-diphenylbutylidene)bis[2-[(hexahydro-1H-azepin-1-yl)methyl]phenol] oxalic acid salt] gave an IC50 [1] of 3150 nM and an IC50 [2] of 740 nM.
With CC(CCCN(Cc1ccccc1)Cc1ccccc1)(c1ccc(O)c(CN2CCCCCC2)c1)c1ccc(O)c(CN2CCCCCC2)c1 [Example 10, 4,4'-[4-[Bis(phenylmethyl)amino]-1-methylbutylidene]-bis[2-[(hexahydro-1H-azepin-1yl)methyl]phenol] oxalic acid salt] the IC50 [1] was 4200 nM and the IC50 [2] was 430 nM.
With O=C(NCC(c1ccc(O)c(CN2CCCCCC2)c1)c1ccc(O)c(CN2CCCCCC2)c1)c1ccccc1 [Example 19, N-[2,2-Bis-(3-azepan-1-ylmethyl-4-hydroxyphenyl)ethyl]-benzamide oxalic acid salt] the IC50 [1] was 2400 nM and the IC50 [2] was 17000 nM.
In the case of O=C(NCC(c1ccc(O)c(CN2CCCCCC2)c1)c1ccc(O)c(CN2CCCCCC2)c1)C(c1ccccc1)c1ccccc1 [Example 20, N-[2,2 -Bis-(3-azepan-1-ylmethyl-4-hydroxyphenyl)ethyl]-2,2-diphenylacetamide oxalic acid salt], the IC50 [1] is reported as 2400 nM.
CC(NC(=O)c1ccccc1)C(c1ccc(O)c(CN2CCCCCC2)c1)c1ccc(O)c(CN2CCCCCC2)c1 (stereo not drawn) [Example 21, N-[2,2-Bis-(3-azepan-1-ylmethyl-4-hydroxyphenyl)-1-methylethyl]benzamide oxalic acid salt] gave an IC50 [1] of 2200 nM and an IC50 [2] of 14000 nM.
For “SNX-111: selective N-type calcium channel blocker, SNX-111 (CKGKGAKCSRLMYDCCTGSCRSGKC-NH2; disulfide 1-16, 15-25, 8-20; UniProt P05484 46-70, looked up)”, the “activity in a number of models of ischemia and pain” value (N-type calcium channel) is given as “demonstrated activity”.
